The values that follow are results of earlier work, collected in publication PMC11954708 (Clinical Pharmacokinetics, 2025).

For data set [1] the following is noted: total body clearance value.
For data set [2] the following is noted: for Positive FE in vivo: Yes/No; for AUC ratio Observed: fed/fasted in vivo.

On to `NC(=O)N1c2ccccc2C=Cc2ccccc21` [Carbamazepine], for which the CL in data set [1] was 2.7 [50] l/h. In data set [2], the “Positive FE in vivo” value is recorded as “Yes” and the “AUC ratio Observed” value is 1.12.
For the compound `COC(=O)[C@H](c1ccccc1Cl)N1CCc2sccc2C1` [Clopidogrel], the CL in data set [1] was 84 [52] l/h. Besides, in data set [2], the “Positive FE in vivo” value is on record as “Yes”.
Regarding `C[C@H]1O[C@@H](O[C@H]2[C@@H](O)C[C@H](O[C@H]3[C@@H](O)C[C@H](O[C@H]4CC[C@@]5(C)[C@H](CC[C@@H]6[C@@H]5C[C@@H](O)[C@]5(C)[C@@H](C7=CC(=O)OC7)CC[C@]65O)C4)O[C@@H]3C)O[C@@H]2C)C[C@H](O)[C@@H]1O` [Digoxin], in data set [1], the CL is 5.28 [51] l/h. Moreover, the “CYP3A4 or UGT substrate?” value with CYP3A4 or UGT is “No”.
In the case of `O=C1Nc2ccc(Cl)cc2[C@@](C#CC2CC2)(C(F)(F)F)O1` [Efavirenz], the “CL (po)” value in data set [1] was 9.4 (po) [51] l/h. In addition, in data set [2], the “Positive FE in vivo” value is on record as “Yes” and the “AUC ratio Observed” value is 1.28.
Turning to `CCOC(=O)C1=C(C)NC(C)=C(C(=O)OC)C1c1cccc(Cl)c1Cl` (centres unmarked) [Felodipine], the “Positive FE in vivo” value in data set [2] is on record as “No”.
With `Cc1cccc(Nc2ccccc2C(=O)O)c1C` [Mefenamic acid], in data set [1], the “CL (po)” value is 21.23 (po) [51] l/h. Further, the “Positive FE in vivo” value in data set [2] is “No”. In the data set with CYP3A4 or UGT, the “CYP3A4 or UGT substrate?” value is given as “No”.
